Assay results: patent US6498149B1, “Natural antitumor or antiviral substances and use of the same” (Techno Seven Co., Ltd., priority 1997, dated 2002)

Columns and labels:
[1] = Physico-chemical properties (solubility, acid/base nature); format: physicochemical
[2] = tested on: Molt4 (human T cell leukemia cell line); assay: Suppression of incorporation of 3H-thymidine into / proliferation of the Molt4 cell; format: cell-based; details: samples from single HPLC peaks, 7 μg/ml
Protocol: The apoptosis inducing factor (AIF) is produced and released in the supernatant of the NS cell line culture. Thus, the AIF produced by the NS cell was separated and purified by the physico-chemical methods. The activity of AIF was measured by the ability of […] and the DNA fragmentation method. First, the supernatant of the culture of the NS cell line was adsorbed on a C18 column and eluted to separate the AIF. The crude extract was developed on a thin layer chromatography (TLC) plate, and the active fractions were isolated and purified by reverse phase high performance liquid chromatography (HPLC).
The sample lyophilized from 50 ml of the supernatant of the NS cell line culture was subjected to chromatography on a C18 column (BONDELUTE), and the fraction retained in the column was separated and eluted with acetonitrile and methanol, and concentrated to dryness by evaporating the solvents with nitrogen gas.
The fraction was further developed by TLC. That is to say, the solution of the materials separated on the C18 column in chloroform: methanol (1:1) was spotted on a thin layer and developed by chloroform: methanol: distilled water (60:40:8). […]

| discrimination of acidic, neutral and basic substances [1] | SMILES | solubility [1] | suppression of incorporation of 3H-thymidine into the Molt4 cell [2] |
| --- | --- | --- | --- |
| basic substance | Cc1cn([C@@H]2O[C@H](CO)[C@@H](O)[C@H]2O)c(=O)[nH]c1=O [P2, ribothymidine] | soluble in organic solvents such as methanol, dimethylsulfoxide and in water | strong activity |
| basic substance | CO[C@@H]1[C@H](O)[C@@H](CO)O[C@H]1n1cnc2c(O)ncnc21 [P5, 2′-O-methylinosine] | soluble in organic solvents such as methanol, dimethylsulfoxide and in water | – |
| basic substance | CO[C@@H]1[C@H](O)[C@@H](CO)O[C@H]1n1cnc2c(=O)[nH]c(N)nc21 [P6, 2′-O-methylguanosine] | soluble in organic solvents such as methanol, dimethylsulfoxide and in water | – |

| SMILES | discrimination of acidic, neutral and basic substances [1] | solubility [1] | suppression of incorporation of 3H-thymidine into the Molt4 cell [2] |
| --- | --- | --- | --- |
| Cc1cn([C@H]2C[C@H](O)[C@@H](CO)O2)c(=O)[nH]c1=O [P4, thymidine] | basic substance | soluble in organic solvents such as methanol, dimethylsulfoxide and in water | – |
